In the experiment the target is T1, alpha4-beta7 (Homo sapiens, UniProt P13612+P26010).
T1 construct: Sufficient RPMI 8866 cells were removed from stock for assay; endogenous in cells; host or cells: RPMI 8866 cells
T1 sequence (P13612 34-1032): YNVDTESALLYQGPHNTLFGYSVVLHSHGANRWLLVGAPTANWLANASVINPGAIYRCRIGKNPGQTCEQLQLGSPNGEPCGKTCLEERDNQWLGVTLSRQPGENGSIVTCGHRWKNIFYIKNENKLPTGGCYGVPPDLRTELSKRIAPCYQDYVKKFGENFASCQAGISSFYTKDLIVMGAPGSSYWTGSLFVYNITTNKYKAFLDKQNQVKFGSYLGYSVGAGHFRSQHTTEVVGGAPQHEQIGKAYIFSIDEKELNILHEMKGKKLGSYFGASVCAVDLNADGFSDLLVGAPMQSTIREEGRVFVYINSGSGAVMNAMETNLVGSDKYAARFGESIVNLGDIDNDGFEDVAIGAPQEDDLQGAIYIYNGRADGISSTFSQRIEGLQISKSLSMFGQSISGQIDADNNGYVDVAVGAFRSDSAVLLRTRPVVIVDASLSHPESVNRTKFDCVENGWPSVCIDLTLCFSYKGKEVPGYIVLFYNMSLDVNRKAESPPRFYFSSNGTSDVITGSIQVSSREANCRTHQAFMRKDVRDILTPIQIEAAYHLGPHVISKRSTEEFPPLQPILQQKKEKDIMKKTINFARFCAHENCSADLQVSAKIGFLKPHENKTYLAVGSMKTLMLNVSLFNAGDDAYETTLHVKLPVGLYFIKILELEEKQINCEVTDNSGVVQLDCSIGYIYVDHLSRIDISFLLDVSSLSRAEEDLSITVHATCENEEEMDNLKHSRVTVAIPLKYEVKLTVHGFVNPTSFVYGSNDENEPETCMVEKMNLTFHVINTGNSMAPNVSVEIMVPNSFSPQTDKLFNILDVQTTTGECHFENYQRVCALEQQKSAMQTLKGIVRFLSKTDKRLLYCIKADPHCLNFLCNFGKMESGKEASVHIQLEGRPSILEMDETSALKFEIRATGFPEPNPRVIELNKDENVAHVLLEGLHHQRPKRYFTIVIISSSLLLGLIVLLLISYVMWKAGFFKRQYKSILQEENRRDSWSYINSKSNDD
T1 sequence (P26010 20-798): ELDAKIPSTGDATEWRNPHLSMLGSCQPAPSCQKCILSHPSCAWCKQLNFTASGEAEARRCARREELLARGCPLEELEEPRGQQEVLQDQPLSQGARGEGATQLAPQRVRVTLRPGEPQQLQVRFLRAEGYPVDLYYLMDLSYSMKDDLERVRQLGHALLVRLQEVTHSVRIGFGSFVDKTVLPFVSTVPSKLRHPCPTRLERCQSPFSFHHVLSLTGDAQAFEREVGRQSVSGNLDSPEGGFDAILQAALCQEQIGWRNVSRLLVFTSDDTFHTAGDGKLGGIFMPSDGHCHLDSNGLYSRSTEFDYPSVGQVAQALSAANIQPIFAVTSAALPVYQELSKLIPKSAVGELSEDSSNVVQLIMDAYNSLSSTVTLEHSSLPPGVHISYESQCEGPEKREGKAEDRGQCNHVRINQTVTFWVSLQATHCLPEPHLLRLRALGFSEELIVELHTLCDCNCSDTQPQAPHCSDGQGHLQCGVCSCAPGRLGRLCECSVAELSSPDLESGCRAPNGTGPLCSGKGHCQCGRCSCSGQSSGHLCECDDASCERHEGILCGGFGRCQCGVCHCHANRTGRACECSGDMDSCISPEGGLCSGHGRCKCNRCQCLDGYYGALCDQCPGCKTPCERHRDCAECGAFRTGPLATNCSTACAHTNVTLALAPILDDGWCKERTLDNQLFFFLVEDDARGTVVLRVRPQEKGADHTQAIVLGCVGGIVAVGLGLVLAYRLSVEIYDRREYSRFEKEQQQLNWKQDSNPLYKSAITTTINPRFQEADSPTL
Description: Alpha4-Beta7 Assay (MadCAM/RPMI 8866 cell adhesion). The class given is cell-based. As to conditions: calcein labeled RPMI 8866 cells adhering to immobilized MadCAM. The procedure:
Alpha4-Beta7 Assay Protocol
Two weeks to one day prior to the assay, Nunc high-binding F96 Maxisorp immuno plates, #442404 or #439454, were coated with 25 ng/well (0.25 μg/ml) MadCAM in a volume of 100 μl/well. The plates were covered with sealer and wrapped in saran wrap followed by incubation in the refrigerator for at least 24 hours. The coating buffer employed was: 10 mM carbonate/bicarbonate buffer made up from: 0.8 g/L sodium carbonate and 1.55 g/L sodium bicarbonate adjusted to pH 9.6 with 1 N HCl. Assay buffers consisted of the following:
Plates were washed 2× with wash buffer and then blocked at room temperature for at least 1 hour with Blocking Buffer. Sealed plates were sometimes blocked overnight in the refrigerator. Plates were then washed with PBS and hand blotted dry. Remaining liquid was aspirated from the wells.
Sufficient RPMI 8866 cells were removed from stock for assay (2×10^6 cells/ml×10 ml/plate×number of plates) and placed in a centrifuge tube. The tubes were filled to volume with PBS and were spun at 200×G for 8 minutes. The buffer was poured off and the cells were resuspended to 10×10^6/ml in PBS and a stock solution of calcein in DMSO (5mg/mL) was added at 51 μl/ml of cell suspension. The suspension was incubated for 30 minutes at 37° C. in dark. The cells were then washed with PBS. The PBS was poured off and the cells resuspended in cell buffer at a concentration of 2×10^6 cells/mL for plating in the assay.
Stock solution of test compounds at 25× first dilution desired in 100% DMSO were prepared. First dilutions for the standard, as well as test compounds, were 1:25 into straight Binding Buffer, while the remaining serial dilutions were into Dilution Buffer (Binding Buffer/4% DMSO). Stock concentrations and dilutions of compounds for screening were determined by anticipated activity.
For the assay, 129 μl Binding Buffer was plated into first row of wells and 100 μl Dilution Buffer was plated into remaining wells. A 5.44 μl aliquot of each compound was pipetted into appropriate, labeled wells, in triplicate. The compounds were next diluted down the plate (34 μl+100 μl=>4-fold dilution). For controls, 100 μl of Dilution Buffer 100 μl Cell Buffer were plated into the nonspecific background wells (no cells, no compound) and 100 μl Dilution Buffer+100 μl cells were plated into the total binding wells (no compound=100% binding). Labeled cells at 2×10^6 cells/ml, 100 μl/well (=2×10^5 cells/well) were added to each well containing compound. The plates were sealed and incubated in the dark for 45 minutes at room temperature. Following incubation, unbound cells were removed by adding 150 μl PBS/well. The plates were inverted, blotted onto paper towels and washed by gently adding 200 μl PBS to wells and blotting again. Remaining buffer was carefully aspirated from the wells. A final 100 μl PBS was added to each well.
The plates were then read for fluorescence intensity on a Cytofluor 2300 (Millipore) fluorecence measurement system (excitation=485 nm, emission=530 nm). IC50s of each compound were determined by linear regression analysis.

As a reminder, the IC50 is the concentration needed to halve the response being measured.

`Cc1cc(C[C@H](NC(=O)c2c(C)cccc2Cl)C(=O)O)ccc1-c1cn(C)c(=O)n(C)c1=O` [Example 24, N-[(2-chloro-6-methylphenyl)carbonyl]-4-(1,3-dimethyl-2,4-dioxo-5-pyrimidinyl)-3-methyl-L-phenylalanine]: the IC50 is less than 10 µM.

On to `Cc1cc(C[C@H](NC(=O)c2c(Cl)cccc2Cl)C(=O)O)ccc1-c1cn(C)c(=O)n(C)c1=O` [Example 25, N-[(2,6-dichlorophenyl)carbonyl]-4-(1,3-dimethyl-2,4-dioxo-5-pyrimidinyl)-3-methyl-L-phenylalanine], for which the IC50 is less than 10 µM.

Turning to `Cc1cc(C[C@H](NC(=O)c2c(Cl)cccc2Cl)C(=O)O)ccc1-c1c(C)n(C)c(=O)n(C)c1=O` [Example 26, N-[(2,6-dichlorophenyl)carbonyl]-4-(1,3,6-trimethyl-2,4-dioxo-5-pyrimidinyl)-3-methyl-L-phenylalanine], the IC50 is less than 10 µM.

`CCOC(=O)[C@H](Cc1ccc(-c2c(C)n(C)c(=O)n(C)c2=O)cc1)NC(=O)c1c(Cl)cccc1Cl` [Example 27, N-[(2,6-dichlorophenyl)carbonyl]-4-(1,3,6-trimethyl-2,4-dioxo-5-pyrimidinyl)-L-phenylalanine ethyl ester]: the IC50 is less than 10 µM.

The values above are taken from US6380387B1, “4-Pyrimidinyl-n-acyl-l phenylalanines” (Hoffmann-La Roche Inc., priority 1999, dated 2002).
